We go through 13 compounds from patent US10085983B2, “Azabicyclo derivatives, process for preparation thereof and medical use thereof” (Shanghai Haiyan Pharmaceutical Technology Co., Ltd., priority 2014, dated 2018).

Bounds are passed on as bounds.

The target in one experiment is wild-type EGFR kinase (Homo sapiens (Human), UniProt P00533). The settings on record: read-out: EGFR WT (IC50/μM); z'-lyte assay, 10 μM ATP.
Experiment [1] addresses EGFR phosphorylation in A431 (EGFR wild-type) cells (Homo sapiens (Human), UniProt P00533). In words: Inhibition of EGFR phosphorylation in A431 cells (ELISA). In kind it is cell-based. The following applies: 1 h compound treatment, EGF stimulation, read-out: A431 cell (IC50/μM).
Procedure: (§1) In the following methods, the reagents used, the preparation methods of solutions, the cell treatment and the preparation steps of the lysis solution, as well as the ELISA assay steps, were carried out according to the instructions of R&D DYC3570, R&D DYC1095E and R&D DYC1095BE.
I. Reagents and Solutions
(§2) Cell lysis solution: Cell lysis buffer+10 μg/mL Aprotinin (Sigma)+10 μg/mL Leupeptin (Sigma), prepared on site.
(§3) Wash buffer: PBS buffer containing 0.05% (v/v) Tween-20.
(§4) Blocking solution: PBS buffer containing 1% (w/v) BSA.
3.1 A431 Cell Treatment and Testing Procedures
(1) A431 cells (purchased from the Cell Bank of the Type Culture Collection Committee, Chinese Academy of Sciences) were seeded in 96-well plates at a density of 1×10^4/well in 90 μl of DMEM medium containing 10% FBS and cultured at 37° C. in 5% CO2 overnight.
(2) The A431 cell culture medium was replaced with 90 μl of serum-free DMEM medium and the plate was cultured overnight.
(3) The compound to be tested was diluted according to the drug dilution method in MTT assay. 10 μL of the diluted compound or diluted DMSO was added to the corresponding wells of the cell culture plate, and the final concentration of DMSO was 0.5%. The plate was cultured at 37° C. in 5% CO2 for 1 hour. […] The cells without EGF and drug treatment were used as cell control, and the cells treated with EGF without drugs were used as EGF control.
(4) The medium was removed and then 100 μL of the cell lysis solution was added. The plate was sealed and placed in a refrigerator at −80° C. overnight.
The assay was conducted according to the instructions given in R&D DYC3570E.
(1) R&D capture antibody (DYC3570E) was diluted with PBS in the proportion of 1:180.
(§5) (2) The plate was washed 3 times with 360 μL of the wash buffer.
(3) 200 μL of the blocking solution was added and the plate was incubated at 25° C. with shaking for 2 hours.
(4) The plate was washed 3 times with 360 μL of wash buffer.
(§6) (5) 40 μL of cell lysis buffer and 60 μL of cell lysis solution were added and the plate was incubated at 25° C. with shaking for 2 hours.
(§7) (6) The plate was washed 3 times with 360 μL of the wash buffer.
(§8) (7) The detection antibody was diluted with the detection antibody diluent in the proportion specified in the instructions of the kit. 100 μL of the diluted antibody was added to each well and the plate was incubated at 25° C. with shaking in dark for 1 h.
(8) The plate was washed 3 times with 360 μL of the wash buffer.
(9) A reagent and B reagent in TMB substrate (R&D DY999) were mixed in 1:1. 100 μL of the mixture was added to each well and incubated in dark at 25° C. with shaking for 20 min.
(§9) (10) 50 μL of 2N H2SO4 was added to each well.
(11) The plate was read with a microplate reader (Thermo Multiskan K3). OD 450 values and OD570 values of the cell control, blank control, and drug treatment wells were measured. ODEGF, ODdrug and ODcell were obtained by subtracting the corresponding OD570 value from the OD 450 value of the same well.
3.3 Data Analysis Inhibition rate (%)=100%×(ODEGF−ODdrug)/(ODEGF−ODcell)
In a further experiment the test system is H1975 cells. Put plainly: Cell growth inhibition by MTT assay, H1975 cells.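 On all read-outs here: MTT read-out in 96-well plates after 72 h compound exposure of H1975 and A431 cells, with selectivity given as the A431 IC50 divided by the H1975 IC50.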 It is filed as cell-based. The settings on record: for IC50: MTT assay, 72 hours; for Selective inhibitory activity against cell growth [IC50 (A431 cell)/IC50 (H1975 cell)]: ratio of MTT IC50 values.
For experiment [2], the target named is T790M/L858R double mutant EGFR kinase (Homo sapiens (Human), UniProt P00533, L858R/T790M). In words: z'-lyte assay of inhibitory activity on T790M/L858R double mutant EGFR kinase. It is filed as biochemical. The following applies: for Selective inhibitory activity against enzymes [IC50 (EGFR WT)/IC50 (T790M/L858R)]: ratio of enzyme IC50 values; for IC50: z'-lyte assay, 25 μM ATP.

Experiment [3] addresses EGFR phosphorylation in H1975 (EGFR T790M mutant) cells (Homo sapiens (Human), UniProt P00533, L858R/T790M). In words: Inhibition of EGFR phosphorylation in H1975 cells (ELISA).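 On all read-outs here: Phospho-EGFR in cell lysates measured by capture-antibody ELISA with TMB substrate after compound exposure, cells given DMSO alone (0.5% final) serving as control.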 The settings on record: for IC50: ELISA of EGFR phosphorylation, 1 h compound treatment, read-out: H1975 cell (IC50/μM); for Selective inhibitory activity against targets at the cell level [IC50 (A431 cell)/IC50 (H1975 cell)]: ratio of ELISA IC50 values. In kind it is cell-based.
Procedure: as §1, §2, §3, §4
(1) H1975 cells (purchased from the Cell Bank of the Type Culture Collection Committee, Chinese Academy of Sciences) were seeded into 96-well plates at a density of 1×10^4/well, each cell containing 90 μl of RPMI1640 medium with 10% (V/V) FBS, and cultured overnight at 37° C. in 5% (v/v) CO2.
(2) The compounds to be tested were diluted in accordance with the drug dilution method in the MTT assay. 10 μL of the diluted compound or diluted DMSO was added to the corresponding wells of the cell culture plate, and the final concentration of DMSO was 0.5% (V/V). The plate was cultured at 37° C. in 5% (v/v) CO2 for 1 h. The cell culture system treated with DMSO alone was used as cell control.
(3) The medium was removed and then 100 μL of cell lysis solution was added. The plate was sealed and placed in a refrigerator at −80° C. overnight. The cell lysis buffer was used as blank control.
The assay was conducted according to the instructions given in R&D DYC1095E or R&D DYC1095BE.
(1) R&D capture antibody ((DYC1095BE or DYC1095E)) was diluted with PBS in the proportion of 1:180.
as §5
(3) 300 μL of the blocking solution was added and the plate was incubated at 25° C. with shaking for 2 hours.
(4) The plate was washed 3 times with 360 μL of the wash buffer.
as §6, §7, §8
(8) The plate was washed 3 times with 360 μL of wash buffer.
(9) A reagent and B reagent in the TMB substrate (R&D DY999) were mixed in 1:1. 100 μL of the mixture was added to each well and incubated in dark at 25° C. with shaking for 20 min.
as §9
(11) The plate was read with a microplate reader (Thermo Multiskan K3). OD 450 values and OD570 values of the cell control, blank control, and drug treatment wells were measured. ODcell, ODblank and ODdrug treatment were obtained by subtracting the corresponding OD570 value from the OD 450 value of the same well.
2.3 Data Analysis Inhibition rate (%)=100%×(ODcell−ODdrug treatment)/(ODcell−ODblank)

A further experiment concerns NIH3T3 cells. In words: Toxicity test on NIH3T3 cells by MTT assay. In kind it is cell-based.
For a further experiment, the system named is A431 cells. In words: Cell growth inhibition by MTT assay, A431 cells. It is filed as cell-based.

Chain of wild-type EGFR kinase (P00533 25-1210): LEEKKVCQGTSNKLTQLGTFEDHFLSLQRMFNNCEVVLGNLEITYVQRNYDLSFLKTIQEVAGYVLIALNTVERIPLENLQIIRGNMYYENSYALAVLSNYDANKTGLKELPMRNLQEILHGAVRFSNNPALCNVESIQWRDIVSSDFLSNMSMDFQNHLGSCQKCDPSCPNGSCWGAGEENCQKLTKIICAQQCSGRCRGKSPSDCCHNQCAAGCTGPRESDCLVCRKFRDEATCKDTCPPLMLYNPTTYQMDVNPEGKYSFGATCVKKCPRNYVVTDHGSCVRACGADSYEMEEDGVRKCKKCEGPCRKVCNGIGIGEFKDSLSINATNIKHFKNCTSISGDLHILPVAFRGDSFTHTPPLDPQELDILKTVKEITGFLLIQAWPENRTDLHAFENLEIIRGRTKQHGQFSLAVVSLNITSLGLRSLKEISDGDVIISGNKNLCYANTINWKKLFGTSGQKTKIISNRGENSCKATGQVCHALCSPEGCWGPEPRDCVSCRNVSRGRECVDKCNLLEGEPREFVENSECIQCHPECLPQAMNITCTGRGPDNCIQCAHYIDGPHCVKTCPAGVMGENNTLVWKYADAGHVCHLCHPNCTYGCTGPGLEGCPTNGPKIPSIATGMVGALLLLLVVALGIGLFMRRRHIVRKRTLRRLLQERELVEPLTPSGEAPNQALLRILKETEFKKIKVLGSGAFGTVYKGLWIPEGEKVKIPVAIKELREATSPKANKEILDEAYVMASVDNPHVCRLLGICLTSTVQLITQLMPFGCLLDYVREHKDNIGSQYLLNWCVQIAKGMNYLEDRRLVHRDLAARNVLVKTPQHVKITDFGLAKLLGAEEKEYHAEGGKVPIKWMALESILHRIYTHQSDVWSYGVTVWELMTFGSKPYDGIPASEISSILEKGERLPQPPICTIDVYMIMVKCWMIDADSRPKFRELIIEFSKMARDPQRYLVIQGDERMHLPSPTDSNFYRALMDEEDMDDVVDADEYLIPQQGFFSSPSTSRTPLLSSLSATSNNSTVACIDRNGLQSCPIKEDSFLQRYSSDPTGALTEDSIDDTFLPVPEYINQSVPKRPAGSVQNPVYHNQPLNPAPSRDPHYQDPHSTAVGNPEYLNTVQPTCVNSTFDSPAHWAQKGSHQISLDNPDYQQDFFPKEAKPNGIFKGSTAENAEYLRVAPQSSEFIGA
Chain of EGFR phosphorylation in A431 (EGFR wild-type) cells (P00533 25-1210): as above
Chain of EGFR phosphorylation in H1975 (EGFR T790M mutant) cells (P00533 25-1210 T790M/L858R): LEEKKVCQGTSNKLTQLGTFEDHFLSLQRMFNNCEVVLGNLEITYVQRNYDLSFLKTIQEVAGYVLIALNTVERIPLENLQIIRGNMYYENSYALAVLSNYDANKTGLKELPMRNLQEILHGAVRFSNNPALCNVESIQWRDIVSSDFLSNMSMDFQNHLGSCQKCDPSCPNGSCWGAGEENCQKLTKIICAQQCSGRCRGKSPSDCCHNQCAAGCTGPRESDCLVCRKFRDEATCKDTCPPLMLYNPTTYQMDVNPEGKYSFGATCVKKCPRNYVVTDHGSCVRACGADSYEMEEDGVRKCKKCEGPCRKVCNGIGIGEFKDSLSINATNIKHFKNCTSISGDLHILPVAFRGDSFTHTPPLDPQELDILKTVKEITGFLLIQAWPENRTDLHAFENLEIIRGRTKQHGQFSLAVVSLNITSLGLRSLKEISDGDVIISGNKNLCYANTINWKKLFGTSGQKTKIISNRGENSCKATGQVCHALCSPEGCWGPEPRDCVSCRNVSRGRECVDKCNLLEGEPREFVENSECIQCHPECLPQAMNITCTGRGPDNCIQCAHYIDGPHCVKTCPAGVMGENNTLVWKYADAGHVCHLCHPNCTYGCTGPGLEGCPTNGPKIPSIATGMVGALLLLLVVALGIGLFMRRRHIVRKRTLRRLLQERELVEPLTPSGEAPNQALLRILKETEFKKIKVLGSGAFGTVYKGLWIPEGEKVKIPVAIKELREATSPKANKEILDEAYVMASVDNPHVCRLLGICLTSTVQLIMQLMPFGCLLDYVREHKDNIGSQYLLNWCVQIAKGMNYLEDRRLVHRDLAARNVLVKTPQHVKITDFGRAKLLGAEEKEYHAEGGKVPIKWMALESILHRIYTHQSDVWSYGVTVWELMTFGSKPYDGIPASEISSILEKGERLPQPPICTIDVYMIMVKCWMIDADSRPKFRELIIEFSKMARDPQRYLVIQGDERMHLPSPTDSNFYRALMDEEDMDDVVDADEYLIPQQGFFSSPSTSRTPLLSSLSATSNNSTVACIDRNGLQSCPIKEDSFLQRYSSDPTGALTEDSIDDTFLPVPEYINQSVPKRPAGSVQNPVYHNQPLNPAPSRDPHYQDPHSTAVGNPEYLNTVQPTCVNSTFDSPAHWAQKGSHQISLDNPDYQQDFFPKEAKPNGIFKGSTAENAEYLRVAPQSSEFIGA
Chain of T790M/L858R double mutant EGFR kinase (P00533 25-1210 T790M/L858R): as above
Procedure for NIH3T3 cells: The steps of the MTT assay were carried out using methods well known to those skilled in the art, and all the reagents used in the methods are commercially available.
After the first wash, another 1.5 mL of trypsin/EDTA was added to digest the adherent cells until the cells detached. Then 3.5 mL of the culture medium was added to terminate the digestion. The digested cell suspension was transferred to a 15 mL centrifuge tube and centrifuged at 1300 rpm for 3 minutes. The supernatant was discarded and the cells were resuspended in fresh medium. The cells were then counted and diluted to the following concentrations: 27,800 cells per milliliter of H1975 cells, 33,300 cells per milliliter of A431 cells and NIH3T3 cells (purchased from the Cell Bank of the Type Culture Collection Committee, Chinese Academy of Sciences).
After the drug was added, the cells were incubated in an incubator for 72 hours. 10 μL of 5 mg/ml MTT (Sigma, M5655) solution was added to each well. The 96-well plate was then incubated in a 37° C. and 5% CO2 incubator for 4 h.
The plate was then centrifuged at 2000 rpm for 5 min. After the supernatant was removed, 150 μl of DMSO was added to each well and the plate was shaken in a shaker until all crystal violet was dissolved.
Procedure for wild-type EGFR kinase: All reagents used in the following z′-lyte assay were purchased from Invitrogen.
The working concentrations of each component in 10 μL wild-type EGFR kinase reaction system were: 10 μM ATP, 0.8 ng/μL wild-type EGFR kinase, 2 μM Tyr04 substrate (Invitrogen, PV3193). The concentration of DMSO after addition of the compound to be tested was 2 vol %.
10 mM drug stock solution was dissolved at room temperature and gradiently diluted to a final concentration of 4-0.002 μM with 8 vol % DMSO solution. […] Then 2.5 μl of ATP was added to initiate the reaction. Wherein, ATP was replaced by the reaction buffer in well C1, no drug was added to well C2, and the phosphorylated substrate was added to well C3 according to the instructions. The mixture was allowed to react at 25° C. in a shaker in dark for 60 min. 5 μL of Development Reagent B (Invitrogen, diluted with TR-FRET dilution buffer) was added and allowed to react at room temperature in the shaker for 60 minutes.
The inhibition rate was calculated according to the following method (refer to the instructions of Invitrogen, PV3193):
1. ER=Coumarin Emission (450 nm)/Fluorescein Emission (520 nm)
The half-inhibitory concentration IC50 was obtained through fitting calculation by using XLFIT 5.0 software (IDBS, UK).

Turning to `C=CC(=O)Nc1cc(Nc2ncc3ccc(-c4cnn(C)c4)n3n2)c(OC)cc1N1CCN(C)CC1` [Compound J-4, N-(4-methoxy-5-(7-(1-methyl-1H-pyrazol-4-yl)pyrrolo[1,2-f][1,2,4]triazin-2-ylamino)-2-(4-methyl-1-yl)phenyl)acrylamide], the IC50 turned out to be 0.035 µM on wild-type EGFR kinase; 1.8 µM in experiment [1]; 0.014 µM in the experiment on H1975 cells; 0.002 µM in experiment [2]; 0.004 µM in experiment [3]; 3.65 µM with NIH3T3 cells (72 hours). Besides, the IC50 with A431 cells (72 hours) amounted to 0.461 µM. The “Selective inhibitory activity against cell growth [IC50 (A431 cell)/IC50 (H1975 cell)]” value in the experiment with H1975 cells turned out to be 32.9. The “Selective inhibitory activity against enzymes [IC50 (EGFR WT)/IC50 (T790M/L858R)]” value in experiment [2] came out at 17.5. Besides, the “Selective inhibitory activity against targets at the cell level [IC50 (A431 cell)/IC50 (H1975 cell)]” value in experiment [3] amounted to 450.
As to `CN(C)C/C=C/C(=O)Nc1cc2c(Nc3ccc(F)c(Cl)c3)ncnc2cc1O[C@H]1CCOC1` [BIBW2992, alfatinib, reference compound], the IC50 in the experiment on H1975 cells (Homo sapiens, NCI-H1975) amounted to 0.088 µM; in the experiment on NIH3T3 cells (Mus musculus, NIH3T3, 72 hours), 2.75 µM.
As to `C=CC(=O)Nc1cc(Nc2cn3c(-c4cnn(C)c4)cnc3cn2)c(OC)cc1N1CCC(N(C)C)CC1` [Compound J-19, N-(2-(4-(dimethylamino)piperidin-1-yl)-4-methoxy-5-(3(1-methyl-1H-pyrazol-4-yl)imidazo[1,2-α]pyrazinyl 6-amino)phenyl)acrylamide], the IC50 is 0.327 µM in experiment [1]; 0.243 µM with H1975 cells; 0.289 µM in experiment [3]; above 10 µM in the experiment on NIH3T3 cells (72 hours); 1.21 µM with A431 cells (72 hours). Besides, the “Selective inhibitory activity against cell growth [IC50 (A431 cell)/IC50 (H1975 cell)]” value in the experiment with H1975 cells turned out to be 5. Also, the “Selective inhibitory activity against targets at the cell level [IC50 (A431 cell)/IC50 (H1975 cell)]” value in experiment [3] turned out to be 1.13.
Regarding `C=CC(=O)Nc1cc(Nc2ncc3ccc(-c4cnc5ccccc5c4)n3n2)c(OC)cc1N(C)CCN(C)C` [Compound J-10, N-(2-((2-(dimethylamino)ethyl)(methyl)amino)-4-methoxy-5-(7-(quinolin-3-yl)pyrrolo[1,2-f][1,2,4]triazin-2-ylamino)phenyl)acrylamide], the IC50 at wild-type EGFR kinase is 0.003 µM; with H1975 cells, 0.009 µM; in experiment [2], 0.001 µM; in the experiment with NIH3T3 cells (72 hours) it was 3.27 µM; in the experiment on A431 cells (72 hours) it was 0.147 µM. The “Selective inhibitory activity against cell growth [IC50 (A431 cell)/IC50 (H1975 cell)]” value in the experiment with H1975 cells is recorded as 16.3. In experiment [2], the “Selective inhibitory activity against enzymes [IC50 (EGFR WT)/IC50 (T790M/L858R)]” value is on record as 3.
For `C=CC(=O)Nc1cc(Nc2cn3c(-c4cnn(C)c4)cnc3cn2)c(OC)cc1N(C)CCN(C)C` [Compound J-18, N-(2-((2-(dimethylamino)ethyl)(methyl)amino)-4-methoxy-5-(3(-methyl-1H-pyrazol-4-yl)imidazo[1,2-α]pyrazin-6-ylamino)phenyl)acrylamide], the IC50 with H1975 cells was 0.251 µM; in the experiment on NIH3T3 cells (72 hours) it was above 10 µM; with A431 cells (72 hours) it was 1.56 µM. Besides, in the experiment with H1975 cells, the “Selective inhibitory activity against cell growth [IC50 (A431 cell)/IC50 (H1975 cell)]” value was 6.2.
On to `C=CC(=O)Nc1cc(Nc2ncc3ccc(C4CC4)n3n2)c(OC)cc1N(C)CCN(C)C` [Compound J-8, N-(5(7-cyclopropylpyrrolo[1,2-f][1,2,4]triazin-2-ylamino)-2-((2-(dimethylamino)ethyl)(methyl)amino)-4-methoxyphenyl)acrylamide], for which the IC50 at wild-type EGFR kinase was 0.112 µM; in experiment [1], 0.495 µM; in the experiment with H1975 cells it was 0.097 µM; in experiment [2], 0.002 µM; in experiment [3], 0.163 µM; in the experiment on A431 cells (72 hours) it was 3.19 µM. The “Selective inhibitory activity against cell growth [IC50 (A431 cell)/IC50 (H1975 cell)]” value with H1975 cells is recorded as 32.9. Moreover, the “Selective inhibitory activity against enzymes [IC50 (EGFR WT)/IC50 (T790M/L858R)]” value in experiment [2] is on record as 56. Also, in experiment [3], the “Selective inhibitory activity against targets at the cell level [IC50 (A431 cell)/IC50 (H1975 cell)]” value came to 3.
As to `C=CC(=O)Nc1cc(Nc2ncc3ccc(C)n3n2)c(OC)cc1N1CCC(N(C)C)CC1` [Compound J-14, N-(2-(4-(dimethylamino)piperidin-1-yl)-4-methoxy-5-(7-methylpyrrolo[1,2-f][1,2,4]triazin-2-ylamino)phenyl)acrylamide], the IC50 in the experiment with H1975 cells stood at 0.126 µM; in the experiment with NIH3T3 cells (72 hours) it was 7.77 µM; in the experiment with A431 cells (72 hours), 3.56 µM.
For the compound `C=CC(=O)Nc1cc(Nc2cn3c(-c4ccn(C)c4)cnc3cn2)c(OC)cc1N(C)CCN(C)C` [Compound J-16, N-(2-((2-(dimethylamino)ethyl)(methyl)amino)-4-methoxy-5-(3(1-methyl-1H-pyrrol-3-yl)imidazo[1,2-a]pyrazin-6-ylamino)phenyl)acrylamide], the IC50 in experiment [1] is 0.211 µM; in the experiment on H1975 cells (Homo sapiens, NCI-H1975) it was 0.388 µM; in experiment [3] it was 0.171 µM; in the experiment with NIH3T3 cells (Mus musculus, NIH3T3, 72 hours), above 10 µM; in the experiment on A431 cells (Homo sapiens, A-431, 72 hours), 1.15 µM. Also, the “Selective inhibitory activity against cell growth [IC50 (A431 cell)/IC50 (H1975 cell)]” value in the experiment on H1975 cells is reported as 3. Moreover, the “Selective inhibitory activity against targets at the cell level [IC50 (A431 cell)/IC50 (H1975 cell)]” value in experiment [3] is reported as 1.2.
In the case of `C=CC(=O)Nc1cc(Nc2ncc3ccc(C4CC4)n3n2)c(OC)cc1N1CCC(N(C)C)CC1` [Compound J-15, N-(5(7-cyclopropylpyrrolo[1,2-f][1,2,4]triazin-2-ylamino)-2-(4-(dimethylamino)piperidin-1-yl)-4-methoxyphenyl)acrylamide], the IC50 on wild-type EGFR kinase was above 1 µM; in experiment [2], 0.262 µM. In experiment [2], the “Selective inhibitory activity against enzymes [IC50 (EGFR WT)/IC50 (T790M/L858R)]” value came out at 3.8.
Regarding `C=CC(=O)Nc1cc(Nc2cn3c(-c4cccnc4)cnc3cn2)c(OC)cc1N(C)CCN(C)C` [Compound J-17, N-(2-((2-(dimethylamino)ethyl)(methyl)amino)-4-methoxy-5-(3(pyridin-3-yl)imidazo[1,2-a]pyrazin-6-ylamino)phenyl)acrylamide], the IC50 was 1.16 µM in experiment [1]; 0.424 µM in the experiment with H1975 cells (Homo sapiens, NCI-H1975); 0.734 µM in experiment [3]; above 10 µM in the experiment with NIH3T3 cells (Mus musculus, NIH3T3, 72 hours); 2.95 µM with A431 cells (Homo sapiens, A-431, 72 hours). Also, the “Selective inhibitory activity against cell growth [IC50 (A431 cell)/IC50 (H1975 cell)]” value with H1975 cells is given as 7. Further, the “Selective inhibitory activity against targets at the cell level [IC50 (A431 cell)/IC50 (H1975 cell)]” value in experiment [3] turned out to be 1.6.
With `C=CC(=O)Nc1cc(Nc2ncc3c(C)cc(-c4cnn(C)c4)n3n2)c(OC)cc1N1CCC(N(C)C)CC1` [Compound J-21, N-(2-(4-(dimethylamino)piperidin-1-yl)-4-methoxy-5-(5-methyl-7-(1-methyl-1H-pyrazol-4-yl)pyrrolo[1,2-F][1,2,4]triazin-2-ylamino)phenyl)acrylamide], at wild-type EGFR kinase, the IC50 was above 1 µM. Further, in experiment [2], the “Selective inhibitory activity against enzymes [IC50 (EGFR WT)/IC50 (T790M/L858R)]” value was 3.4 and the IC50 came out at 0.294 µM.
As for `C=CC(=O)Nc1cc(Nc2ncc3c(C)cc(-c4cnn(C)c4)n3n2)c(OC)cc1N(C)CCN(C)C` [Compound J-20, N-(2-((2-(dimethylamino)ethyl)(methyl)amino)-4-methoxy-5-(5-methyl-7-(1-methyl-1H-pyrazol-4-yl)pyrrolo[1,2-F][1,2,4]triazin-2-ylamino)phenyl)acrylamide], the IC50 stood at 0.294 µM on wild-type EGFR kinase and 0.012 µM in experiment [2]. Also, in experiment [2], the “Selective inhibitory activity against enzymes [IC50 (EGFR WT)/IC50 (T790M/L858R)]” value amounted to 24.5.
In the case of `C=CC(=O)Nc1cc(Nc2ncc3ccc(-c4cnc5c(ccn5C)c4)n3n2)c(OC)cc1N(C)CCN(C)C` [Compound J-7, N-(2-((2-(dimethylamino)ethyl)(methyl)amino)-4-methoxy-5-(7-(1-methyl-1H-pyrrolo[2,3-b]pyridin-5-yl)pyrrolo[1,2-f][1,2,4]triazin-2-ylamino)phenyl)acrylamide], the IC50 on wild-type EGFR kinase was 0.005 µM; in the experiment on H1975 cells, 0.01 µM; in experiment [2], 0.002 µM; in the experiment on NIH3T3 cells (72 hours), 3.38 µM; in the experiment with A431 cells (72 hours) it was 0.231 µM. Also, the “Selective inhibitory activity against cell growth [IC50 (A431 cell)/IC50 (H1975 cell)]” value in the experiment with H1975 cells came out at 23.1. Moreover, the “Selective inhibitory activity against enzymes [IC50 (EGFR WT)/IC50 (T790M/L858R)]” value in experiment [2] is reported as 2.5.
